Test results: patent US20210189342A1, “COMPOSITIONS AND METHODS FOR MODULATING MONOCYTE AND MACROPHAGE INFLAMMATORY PHENOTYPES AND IMMUNOTHERAPY USES THEREOF” (Verseau Therapeutics, Inc., priority 2018, published 2021)

Each substance was assayed on AIF1 (assay: siRNA dose response, AIF1 mRNA knockdown, bDNA Assay). Conditions: THP-1, 24 hr.
Format: cell-based, human
Method: (§1) Dose response curves for siRNAs were generated in vitro using a variety of cell lines according to Table 4.
(§2) Briefly, cells were seeded in 96-well plates and reverse transfected with siRNA, Lipofectamine® 2000 (0.5 uL/well; ThermoFisher), and, in some cases, a reporter plasmid (50 ng/well). The reporter plasmid (psiCHECK™-2, Promega) encoded both firefly luciferase and the gene of interest fused to renilla luciferase; silencing of the gene of interest results in proportional silencing of renilla luciferase but leaves firefly luciferase unaffected as an internal control.
(§3) After 24 hr incubation at 37° C., mRNA knockdown was measured using an endpoint assay. For targets without a reporter plasmid, a branched DNA (bDNA) assay was performed according to the manufacturer's instructions (QuantiGene® Singleplex Gene Expression Assay, ThermoFisher) to measure both the target gene and GAPDH (housekeeping gene) mRNA. Data are plotted as siRNA concentration (nM) vs. remaining mRNA (ratio of target gene to GAPDH, normalized to mock siRNA-transfected cells). For targets with a reporter plasmid, a Dual-Glo® Luciferase Assay was performed according to the manufacturer's instructions (Promega) to measure firefly and renilla luciferase expression. Data are plotted as siRNA concentration (nM) vs. remaining mRNA (ratio of renilla to firefly luminescence, normalized to mock siRNA-transfected cells).
(§4) For all dose response curves, a 4-parameter logistic model was applied to determine the IC50 of each siRNA sequence (Table 5 and FIG. 2). Data shown in Table 5 and FIG. 2 represent the mean of quadruplicates, +/−standard deviation.

Row | Substance | IC50
1 | XD-09668: siRNA targeting AIF1 (sense 5'-ccuAGAGcuAAAGaAAuuAdTsdT-3'; antisense 5'-uAAUUUCUUuAGCUCuAGGdTsdT-3'; as printed in the source, key not given here) | 0.267 nM
2 | XD-09665: siRNA targeting AIF1 (sense 5'-cucAccuAGAGcuaAAGAAdTsdT-3'; antisense 5'-UUCUUuAGCUCuAGGUGAGdTsdT-3'; as printed in the source, key not given here) | 0.349 nM
3 | XD-09661: siRNA targeting AIF1 (sense 5'-uaAuGGAAAuGGcgAuAuudTsdT-3'; antisense 5'-AAuAUCGCcAUUUCcAUuAdTsdT-3'; as printed in the source, key not given here) | 0.045 nM
4 | XD-09664: siRNA targeting AIF1 (sense 5'-agAcucAccuAGAgcuAAAdTsdT-3'; antisense 5'-UUuAGCUCuAGGUGAGUCUdTsdT-3'; as printed in the source, key not given here) | 0.433 nM
5 | XD-09666: siRNA targeting AIF1 (sense 5'-ucAccuAGAGcuAaAGAAAdTsdT-3'; antisense 5'-UUUCUUuAGCUCuAGGUGAdTsdT-3'; as printed in the source, key not given here) | 0.105 nM
6 | XD-09669: siRNA targeting AIF1 (sense 5'-ccGGGGAGAcGuucAGcuAdTsdT-3'; antisense 5'-uAGCUGAACGUCUCCCCGGdTsdT-3'; as printed in the source, key not given here) | 1.23 nM
7 | XD-09662: siRNA targeting AIF1 (sense 5'-uaucAuGucccuGaAAcGAdTsdT-3'; antisense 5'-UCGUUUcAGGGAcAUGAuAdTsdT-3'; as printed in the source, key not given here) | 0.12 nM
8 | XD-09663: siRNA targeting AIF1 (sense 5'-gaAAcGAAuGcuGgAGAAAdTsdT-3'; antisense 5'-UUUCUCcAGcAUUCGUUUCdTsdT-3'; as printed in the source, key not given here) | 0.263 nM
9 | XD-09667: siRNA targeting AIF1 (sense 5'-accuAGAGcuAAAgAAAuudTsdT-3'; antisense 5'-AAUUUCUUuAGCUCuAGGUdTsdT-3'; as printed in the source, key not given here) | 0.042 nM

These substances were tested on CD37 (assay: siRNA dose response, CD37 mRNA knockdown, bDNA Assay). Conditions: THP-1, 24 hr.
Format: cell-based, human
Method: as §1, §2, §3, §4

Row | Substance | IC50
10 | XD-09770: siRNA targeting CD37 (sense 5'-gcuuGcGGGAcGucGuAGAdTsdT-3'; antisense 5'-UCuACGACGUCCCGcAAGCdTsdT-3'; RNA with 2'-O-methyl and phosphorothioate modifications, case key not given here, as printed in the source, key not given here) | 0.553 nM
11 | XD-09776: siRNA targeting CD37 (sense 5'-ggcuGcAcAAcAAccuuAudTsdT-3'; antisense 5'-AuAAGGUUGUUGUGcAGCCdTsdT-3'; RNA with 2'-O-methyl and phosphorothioate modifications, case key not given here, as printed in the source, key not given here) | 1.32 nM
12 | XD-09778: siRNA targeting CD37 (sense 5'-cgGcucGcucGAuaccGuudTsdT-3'; antisense 5'-AACGGuAUCGAGCGAGCCGdTsdT-3'; RNA with 2'-O-methyl and phosphorothioate modifications, case key not given here, as printed in the source, key not given here) | 11.4 nM
13 | XD-09775: siRNA targeting CD37 (sense 5'-ccAcAAuccuAGAuAAGGudTsdT-3'; antisense 5'-ACCUuAUCuAGGAUUGUGGdTsdT-3'; RNA with 2'-O-methyl and phosphorothioate modifications, case key not given here, as printed in the source, key not given here) | 1.6 nM
14 | XD-09779: siRNA targeting CD37 (sense 5'-accAcccAcAAGAuuAuuudTsdT-3'; antisense 5'-AAAuAAUCUUGUGGGUGGUdTsdT-3'; RNA with 2'-O-methyl and phosphorothioate modifications, case key not given here, as printed in the source, key not given here) | < 0.005 nM
15 | XD-09774: siRNA targeting CD37 (sense 5'-ccAAcGAcuccAcaAuccudTsdT-3'; antisense 5'-AGGAUUGUGGAGUCGUUGGdTsdT-3'; RNA with 2'-O-methyl and phosphorothioate modifications, case key not given here, as printed in the source, key not given here) | 0.129 nM

What follows are substances tested on CD74 (assay: siRNA dose response, CD74 mRNA knockdown, bDNA Assay). Conditions: THP-1, 24 hr.
Format: cell-based, human
Method: as §1, §2, §3, §4

Row | Substance | IC50
16 | XD-09232: siRNA targeting CD74 (sense 5'-agcuAGAcAGAuccccGuudTsdT-3'; antisense 5'-AACGGGGAUCUGUCuAGCUdTsdT-3'; RNA with 2'-O-methyl and phosphorothioate modifications, case key not given here, as printed in the source, key not given here) | 0.747 nM
17 | XD-09235: siRNA targeting CD74 (sense 5'-ccAAuGuuuuccAcccAuAdTsdT-3'; antisense 5'-uAUGGGUGGAAAAcAUUGGdTsdT-3'; as printed in the source, key not given here) | 0.245 nM

What follows are substances tested on VSIG4 (assay: siRNA dose response, VSIG4 mRNA knockdown, Dual-Glo Luciferase Assay). Conditions: Hepa1-6 + reporter plasmid, 24 hr.
Format: cell-based, human
Method: as §1, §2, §3, §4

Row | Substance | IC50
18 | XD-09177: siRNA targeting VSIG4 (sense 5'-acuAGGAcuuGGucAucAudTsdT-3'; antisense 5'-AUGAUGACcAAGUCCuAGUdTsdT-3'; RNA with 2'-O-methyl and phosphorothioate modifications, case key not given here, as printed in the source, key not given here) | 0.007 nM
19 | XD-09174: siRNA targeting VSIG4 (sense 5'-aacAAGAGcAuGucuAcGAdTsdT-3'; antisense 5'-UCGuAGAcAUGCUCUUGUUdTsdT-3'; RNA with 2'-O-methyl and phosphorothioate modifications, case key not given here, as printed in the source, key not given here) | 0.036 nM
20 | XD-09176: siRNA targeting VSIG4 (sense 5'-cacuAGGAcuuGGucAucAdTsdT-3'; antisense 5'-AGAUGACcAAGUCCuAGUGdTsdT-3'; RNA with 2'-O-methyl and phosphorothioate modifications, case key not given here, as printed in the source, key not given here) | 0.031 nM
21 | XD-09170: siRNA targeting VSIG4 (sense 5'-aaGGcuAcAcccAaGucuudTsdT-3'; antisense 5'-AAGACUUGGGUGuAGCCUUdTsdT-3'; RNA with 2'-O-methyl and phosphorothioate modifications, case key not given here, as printed in the source, key not given here) | 0.024 nM
22 | XD-09173: siRNA targeting VSIG4 (sense 5'-cguGAGAGAuAAGauuAcudTsdT-3'; antisense 5'-AGuAAUCUuAUCUCUcACGdTsdT-3'; RNA with 2'-O-methyl and phosphorothioate modifications, case key not given here, as printed in the source, key not given here) | < 0.005 nM
23 | XD-09171: siRNA targeting VSIG4 (sense 5'-cuuucuAcGuGAcucuucudTsdT-3'; antisense 5'-AGAAGAGUcACGuAGAAAGdTsdT-3'; RNA with 2'-O-methyl and phosphorothioate modifications, case key not given here, as printed in the source, key not given here) | 0.023 nM
24 | XD-09179: siRNA targeting VSIG4 (sense 5'-ggccAGAcAGcuuuuAAuudTsdT-3'; antisense 5'-AAUuAAAAGCUGUCUGGCCdTsdT-3'; RNA with 2'-O-methyl and phosphorothioate modifications, case key not given here, as printed in the source, key not given here) | 0.006 nM
25 | XD-09178: siRNA targeting VSIG4 (sense 5'-gucAucAuGccuAcAGAcAdTsdT-3'; antisense 5'-UGUCUGuAGGcAUGAUGACdTsdT-3'; RNA with 2'-O-methyl and phosphorothioate modifications, case key not given here, as printed in the source, key not given here) | 0.06 nM
26 | XD-09172: siRNA targeting VSIG4 (sense 5'-gcAAccAAGucGugAGAGAdTsdT-3'; antisense 5'-UCUCUcACGACUUGGUUGCdTsdT-3'; RNA with 2'-O-methyl and phosphorothioate modifications, case key not given here, as printed in the source, key not given here) | < 0.005 nM
